Assay results reported in ChEMBL document CHEMBL6115007, “Synthesis and in vitro and in vivo evaluation of novel bivalent quinolines as antitumor agents via targeting autophagy in cervical cancer” (Eur J Med Chem, 2025).
Activity calls are given as the source filed them. No cut-off for these calls is given here.

Experiments:
HeLa [1] = assay: Induction of autophagy in ATG5 deficient human HeLa cells assessed as increase in LC3-II expression at 0.6 to 1.2 uM incubated for 24 hrs by Western blot analysis; type: functional, cell-based; conditions: dose 0.6-1.2 µM
Ca-Ski [2] = assay: Induction of apoptosis in human Ca Ski cells assessed as necrotic cells at 0.5 uM preincubated with Z-VAD-FMK for 1 hrs followed by compound addition and measured after 24 hrs by Annexin V-FITC/PI staining based flow cytometric analysis (reference value: 1.54 %); type: functional
Ca-Ski [3] = assay: Antiproliferative activity against Bax deficient human Ca Ski cells assessed as inhibition of cell viability incubated for 24 hrs by CCK8 assay; type: functional, cell-based
HeLa [4] = assay: Antiproliferative activity against ATG7 deficient human HeLa cells assessed as inhibition of cell viability incubated for 24 hrs by CCK8 assay; type: functional, cell-based
HeLa [5] = assay: Antiproliferative activity against human HeLa cells assessed as inhibition of cell growth at 0.4 to 1.6 uM by CCK8 assay; type: functional, cell-based; conditions: dose 0.4-1.6 µM, time 6.0 day
Ca-Ski [6] = assay: Effect on cleaved PARP expression level in p53 deficient human Ca Ski cells at 0.5 to 1 uM incubated for 24 hrs by Western blot analysis; type: functional, cell-based; conditions: dose 0.5-1 µM
Ca-Ski [7] = assay: Induction of apoptosis in human Ca Ski cells assessed as viable cells at 0.5 uM incubated for 24 hrs by Annexin V-FITC/PI staining based flow cytometric analysis (reference value: 86.8 %); type: functional; conditions: read-out: Activity
HeLa [8] = assay: Induction of autophagy in human HeLa cells assessed as increase in LC3-I conversion to LC3-II at 0.3 to 1.2 microM incubated for 24 hrs by Western blot analysis; type: functional, cell-based; conditions: dose 0.3-1.2 µM
HeLa [9] = assay: Effect on cleaved caspase 3 expression level in p53 deficient human HeLa cells at 0.6 to 1.2 uM incubated for 24 hrs by Western blot analysis; type: functional, cell-based; conditions: dose 0.6-1.2 µM
Ca-Ski [10] = assay: Induction of apoptosis in human Ca Ski cells assessed as early apoptotic cells at 0.5 uM preincubated with Z-VAD-FMK for 1 hrs followed by compound addition and measured after 24 hrs by Annexin V-FITC/PI staining based flow cytometric analysis (reference value: 2.91 %); type: functional
[11] = Toxicity in female BALB/c mouse xenografted with human HeLa cells assessed as effect on AST level at 4 to 8 mg/kg administered every four days and measured after 26 days; type: organism-based; conditions: in vivo, 624 h, dose 4-8 mg/kg, time 26 day
HeLa [12] = assay: Induction of morphological changes in human HeLa cells assessed as increase in inflated cell appearance at 0.6 to 2.4 uM by microphotographic analysis; type: functional, cell-based; conditions: dose 0.6-2.4 µM
SiHa [13] = assay: Antiproliferative activity against human SiHa cells assessed as inhibition of cell viability incubated for 24 hrs by CCK8 assay; type: functional, cell-based
Ca-Ski [14] = assay: Effect on cleaved caspase 3 expression level in p53 deficient human Ca Ski cells at 0.5 to 1 uM incubated for 24 hrs by Western blot analysis; type: functional, cell-based; conditions: dose 0.5-1 µM
Ca-Ski [15] = assay: Antiproliferative activity against human Ca Ski cells assessed as inhibition of cell growth at 0.4 to 1.6 uM by CCK8 assay; type: functional, cell-based; conditions: dose 0.4-1.6 µM, time 6.0 day
HeLa [16] = assay: Induction of apoptosis in human HeLa cells assessed as viable cells at 1.2 uM incubated for 24 hrs by Annexin V-FITC/PI staining based flow cytometric analysis (reference value: 96.2 %); type: functional; conditions: read-out: Activity
Ca-Ski [17] = assay: Inhibition of cell migration in human Ca Ski cells at 0.5 to 1.0 uM measured after 48 hrs by cell scratch assay; type: functional, cell-based; conditions: dose 0.5-1 µM
HepG2 = assay: Antiproliferative activity against human HepG2 cells assessed as reduction in cell optical density incubated for 48 hrs by MTT assay; type: functional, cell-based; conditions: HepG2, 48 h
HeLa [18] = assay: Induction of ferroptosis in human HeLa cells assessed as increase in lipid ROS level by measuring rightward shift in fluorescence intensity at 0.6 uM measured after 24 hrs by C11-BODIPY-581/591 staining based flow cytometric analysis; type: functional, cell-based
Ca-Ski [19] = assay: Effect on caspase 3 expression level in p53 deficient human Ca Ski cells at 0.5 to 1 uM incubated for 24 hrs by Western blot analysis; type: functional, cell-based; conditions: dose 0.5-1 µM
BGC-823 = assay: Antiproliferative activity against human BGC-823 cells assessed as reduction in cell optical density incubated for 48 hrs by MTT assay; type: functional, cell-based; conditions: BGC-823, 48 h
SiHa [20] = assay: Induction of morphological changes in human SiHa cells assessed as increase in inflated cell appearance at 0.5 to 2 uM by microphotographic analysis; type: functional, cell-based; conditions: dose 0.5-2 µM
C-33-A [21] = assay: Antiproliferative activity against human C-33-A cells assessed as inhibition of cell growth at 0.3 to 1.2 uM by CCK8 assay; type: functional, cell-based; conditions: dose 0.3-1.2 µM, time 6.0 day
C-33-A [22] = assay: Induction of morphological changes in human C-33-A cells assessed as increase in inflated cell appearance at 0.3 to 1.2 uM by microphotographic analysis; type: functional, cell-based; conditions: dose 0.3-1.2 µM
Ca-Ski [23] = assay: Effect on caspase 3 expression level in human Ca Ski cells at 0.25 to 1 uM incubated for 24 hrs by Western blot analysis; type: functional, cell-based; conditions: dose 0.25-1 µM
HeLa [24] = assay: Induction of autophagy in human HeLa cells transfected with mRFP-GFP-LC3 plasmid assessed as appearance of RFP puncta clusters as aggregates in cytoplasm at 0.4 to 0.8 uM incubated for 24 hrs by DAPI staining based fluorescence confocal microscopic analysis; type: functional, cell-based; conditions: dose 0.4-0.8 µM
Ca-Ski [25] = assay: Induction of autophagy in human Ca Ski cells transfected with mRFP-GFP-LC3 plasmid assessed as decrease in GFP fluorescence at 25 uM incubated for 24 hrs by DAPI staining based fluorescence confocal microscopic analysis; type: functional, cell-based
Ca-Ski [26] = assay: Effect on caspase 3 expression level in Bax deficient human Ca Ski cells at 0.5 to 1 uM incubated for 24 hrs by Western blot analysis; type: functional, cell-based; conditions: dose 0.5-1 µM
Ca-Ski [27] = assay: Effect on GPX4 protein expression level in human Ca Ski cells at 0.5 uM incubated for 24 hrs by Western blot analysis; type: functional, cell-based
HeLa [28] = assay: Antiproliferative activity against human HeLa cells assessed as reduction in cell optical density incubated for 48 hrs by MTT assay; type: functional, cell-based
Ca-Ski [29] = assay: Induction of autophagy in human Ca Ski cells assessed as increase in LC3-I conversion to LC3-II at 0.25 to 1 microM incubated for 24 hrs by Western blot analysis; type: functional, cell-based; conditions: dose 0.25-1 µM
SiHa [30] = assay: Induction of morphological changes in human SiHa cells assessed as increase in appearance of round cells at 0.5 to 2 uM by microphotographic analysis; type: functional, cell-based; conditions: dose 0.5-2 µM
HeLa [31] = assay: Induction of apoptosis in human HeLa cells assessed as late apoptotic cells at 0.6 uM incubated for 24 hrs by Annexin V-FITC/PI staining based flow cytometric analysis (reference value: 0.94 %); type: functional
HeLa [32] = assay: Effect on cleaved caspase 3 expression level in human HeLa cells at 0.3 to 1.2 uM incubated for 24 hrs by Western blot analysis; type: functional, cell-based; conditions: dose 0.3-1.2 µM
Ca-Ski [33] = assay: Effect on ACSL4 protein expression level in human Ca Ski cells at 0.5 uM incubated for 24 hrs by Western blot analysis; type: functional, cell-based

## COc1cccc(Nc2ccnc3cc(OCCCCCOc4ccc5c(Nc6cccc(OC)c6)ccnc5c4)ccc23)c1
HeLa [1]
  Activity: inactive
Ca-Ski [2]
  Activity: 1.4%
Ca-Ski [3]
  IC50: 0.993 µM
HeLa [4]
  IC50: 2.31 µM
HeLa [5]
  Activity: Time-dependent-effect
Ca-Ski [6]
  Activity: inactive
Ca-Ski [7]
  viability at 0.5 µM: 85.5%
HeLa [8]
  Activity: Active
HeLa [9]
  Activity: inactive
Ca-Ski [10]
  Activity: 7.65%
[11]
  Activity: Non-toxic
HeLa [12]
  Activity: Active
SiHa [13]
  Activity: Dose-dependent-effect
  IC50: 1.45 µM
Ca-Ski [14]
  Activity: inactive
Ca-Ski [15]
  Activity: Time-dependent-effect
HeLa [16]
  viability at 1.2 µM: 93.2%
Ca-Ski [17]
  inhibition: Active
HepG2
  IC50: 31.5 µM
HeLa [18]
  Activity: inactive
Ca-Ski [19]
  Activity: inactive
BGC-823
  IC50: 4.06 µM
SiHa [20]
  Activity: Active
C-33-A [21]
  Activity: Time-dependent-effect
C-33-A [22]
  Activity: Active
Ca-Ski [23]
  Activity: inactive
HeLa [24]
  Activity: Active
Ca-Ski [25]
  Activity: Active
Ca-Ski [26]
  Activity: inactive
Ca-Ski [27]
  Activity: Moderate_effect
HeLa [28]
  IC50: 3.71 µM
Ca-Ski [29]
  Activity: Active
SiHa [30]
  Activity: Active
HeLa [31]
  Activity: 2.27%
HeLa [32]
  Activity: inactive
Ca-Ski [33]
  Activity: Moderate_effect
